The subject of series [1] is JM8·N4 mouse embryonic stem cells stably expressing histone H2B-HaloTag® fusion proteins. Nature of the series: Single-particle tracking (SPT) experiments. The series is classed as cell-based. The settings on record: 100 Hz imaging. The procedure:
SPT experiments were carried out as previously described.^84 JM8·N4 mouse embryonic stem cells (ESCs) stably expressing histone H2B-HaloTag® fusion proteins were generated by co-expressing the PiggyBac EF1a-H2B-HaloTag®-IRES-Neo vector with the super piggyBac transposase as described previously,85 followed by G418 selection (500 μg/mL) for 2 weeks and verified by FACS sorting/confocal imaging staining with JF549-HaloTag® ligand (84HTL; 100 nM, 30 min). Cells were seeded on 25 mm #1.5 coverglass pre-cleaned with KOH and ethanol and coated with iMatrix-511 (TaKaRa #T304) or rhLaminin-521 (Gibco™ #A^29248) according to the manufacturers' instruction. All live-cell imaging experiments were conducted using an ESC imaging medium composed of FluoroBrite DMEM (ThermoFisher) plus 15% v/v ESC-qualified FBS, 1× GlutaMax, 1×NEAA, 0.1 mM 2^−mercaptoethanol, and LIF. For comparison of 59HTL and 89HTL (FIG. 13E, 13F) the histone H2B-HaloTag® ESCs were stained with 5 nM 59HTL for 1 h or 0.1 nM 89HTL for 15 min at 37° C. with 5% (v/v) CO2 to achieve sparse labeling with approximately equal localizations per region of interest (ROI), and then washed with dye-free media 3× for 30 min each wash For comparison of 40HTL, 44HTL, 1HTL, or 89HTL (FIG. 12A-12G) the histone H2B-HaloTag® ESCs were stained with 1 nM of HaloTag® ligands for 15 min at 37° C. with 5% (v/v) CO2 to achieve sparse labeling, and then washed with dye-free media 3× for 30 min each wash.
To quantify the brightness and photostability of the HaloTag® ligands, labeled cells were mounted onto a high speed motorized Nikon Eclipse Ti-E inverted microscope equipped with the following: 100× Apo TIRF 1.49 NA objective with a correction collar; four excitation laser lines (405/488/561/642 nm) and matching TIRF quad cube (405/488/561/640 nm reflection bands); automatic TIRF illuminator with motorized X axis and manual Y axis for beam positioning and focus: perfect focus 3 system; Triple DU-897 iXon Ultra EMCCD cameras on a Cairn Tri-cam emission splitter with filters 525/50 (GFP) 600/50 (RFP) and 705/72 (Cy5); humidified incubation chamber maintained at 37° C. with 5% v/v CO2 (Tokai Hit). SPT was performed at 100 Hz for the comparison of 59HTL and 89HTL (FIG. 13E, 13F) and 50 Hz for the comparison of 40HTL, 44HTL, 1HTL, or 89HTL (FIG. 12A-12G); the imaging session was performed for ˜5000 frames using 100% of maximal excitation power (˜120 mW at the fiber end before the TIRF unit). […] For the comparison of HaloTag® ligands 59HTL and 89HTL (FIG. 13E, 13F) and the comparison of compounds 40HTL, 44HTL, 1HTL, and […] (FIG. 12A-12G), the fluorophores were excited with a 647 nm laser. To minimize drift during imaging, the incubation chamber was fully thermally equilibrated, and all imaging was conducted in an isolated ultra-clean room with minimal mechanical vibrations. The microscope, laser lines, and camera integration were controlled using the Nikon NIS-Elements software. Cells with obvious movement during acquisition were removed from further analysis. SMT analysis was based on multiple target tracing 86 (MTT) with tracking parameters similar to previous work.^84 For SPT brightness (photon counts/molecule/s), intensity values from sparsely-labeled molecules were analyzed. For the comparison of HaloTag® ligands 59HTL and 89HTL (FIG. 13E, 13F): n=147,298 single-molecule events using 59HTL; n=100,392 single-molecule events using 89HTL. […]

Series [2] has as its target T1, U2OS cells stably expressing HaloTag®-histone H2B fusion protein (Rhodococcus rhodochrous, UniProt P0A3G2, A155T/A167V/A172T/A224E/C128F/C176G/D78G/E160K/E257K/H272N/K175M/K195N/L47V/L88M/N227D/P291S/S58T/T264A/Y273L/Y87F).
T1 construct: expressed in transfected cells
Nature of the series: Labeling and confocal microscopy using ligands 59HTL and 105HTL. The settings on record: 200 nM, 1 h, washed. The series is classed as cell-based. On the procedure: (§1) U2OS cells (ATCC) and U2OS cells stably expressing an integrated HaloTag®-histone H2B fusion protein (U2OS·H2B·HaloTag®) were cultured in Dulbecco's modified Eagle medium (DMEM, phenol red-free; Life Technologies) supplemented with 10% (v/v) fetal bovine serum (FBS, Life Technologies), 1 mM GlutaMAX (Life Technologies) and maintained at 37° C. in a humidified 5% (v/v) CO2 environment. These cell lines undergo regular mycoplasma testing by the Janelia Cell Culture Facility. For mitochondrial imaging using the HaloTag® system, U2OS cells were transiently transfected using nucleofection (Lonza) with a plasmid constitutively expressing a HaloTag®-TOMM20 fusion protein, which is located on the outer mitochondrial membrane. For 4^−color imaging, U2OS·H2B·HaloTag® stable cells were transiently transfected by nucleofection with plasmids constitutively expressing a SNAP-tag®-TOMM20 fusion protein, and a GFP-SKL (SKL: serine-lysine-leucine) fusion protein, a prototypical peroxisomal matrix targeting signal. All labeled cells were imaged 18-24 h post-transfection or post-plating. […]

For series [3] the following is noted: fluorescein derivatives; 0.1 N NaOH; data from the inventors' published work; cited from earlier work.
The conditions of series [4]: fluorescein derivatives; 0.1 N NaOH; data from the inventors' published work; cited from earlier work. The source holds these as a separate data set.
The conditions of series [5]: Hill coefficient; data from the inventors' published work; cited from earlier work.
The subject of series [6] is U2OS cells stably expressing HaloTag®-histone H2B fusion protein. Nature of the series: Loading experiments with NIR-excited HaloTag® ligands (nuclear fluorescence). The series is classed as cell-based. The settings on record: 200 nM, live cells expressing HaloTag®-histone H2B. The procedure:
U2OS cells (ATCC) and U2OS cells stably expressing an integrated HaloTag®-histone H2B fusion protein (U2OS·H2B·HaloTag®) were cultured in Dulbecco's modified Eagle medium (DMEM, phenol red-free; Life Technologies) supplemented with 10% (v/v) fetal bovine serum (FBS, Life Technologies), 1 mM GlutaMAX (Life Technologies) and maintained at 37° C. in a humidified 5% (v/v) CO2 environment. These cell lines undergo regular mycoplasma testing by the Janelia Cell Culture Facility. For mitochondrial imaging using the HaloTag® system, U2OS cells were transiently transfected using nucleofection (Lonza) with a plasmid constitutively expressing a HaloTag®-TOMM20 fusion protein, which is located on the outer mitochondrial membrane. For 4^−color imaging, U2OS·H2B·HaloTag® stable cells were transiently transfected by nucleofection with plasmids constitutively expressing a SNAP-tag®-TOMM20 fusion protein, and a GFP-SKL (SKL: serine-lysine-leucine) fusion protein, a prototypical peroxisomal matrix targeting signal. All labeled cells were imaged 18-24 h post-transfection or post-plating.
For loading curve experiments (FIG. 15C), U2OS·H2B·HaloTag® stable cells were incubated with 200 nM HaloTag® ligand conjugated dyes (31HTL, 36HTL, 38HTL, 104HTL, 106HTL, 107HTL, and 108HTL) for 0-4 h at 37° C., washed 3× with dye-free media then fixed with 4% paraformaldehyde in 0.1 M phosphate buffer, pH 7.4 for 15 min at 37° C. Confocal imaging was performed on a Leica Stellaris with an HC PL APO 40×/1.25 glycerol objective using the tunable white light laser (WLL) to excite dyes at their λabs in constant power mode. Fluorescence was quantified as the integrated density of nuclear signals in single-plane images analyzed in FIJI;^82 n=100 nuclear signals per compound.

Series [7] shares this test system. The experiment in a line: Photostability experiments in fixed cells. The series is classed as cell-based. To be noted: 200 nM; 30 bleach cycles. The procedure:
as §1, with “membrane.” for “membrane. For 4^−color imaging, U2OS·H2B·HaloTag® stable cells were transiently transfected by nucleofection with plasmids constitutively expressing a SNAP-tag®-TOMM20 fusion protein, and a GFP-SKL (SKL: serine-lysine-leucine) fusion protein, a prototypical peroxisomal matrix targeting signal. All labeled cells were imaged 18-24 h post-transfection or post-plating.”
For photostability experiments (FIG. 1611), U2OS·H2B·HaloTag® stable cells were incubated with 200 nM HaloTag® ligands (31HTL, 106HTL, and 107HTL) for 3 h at 37° C., washed 3× with dye-free media then fixed with 4% paraformaldehyde in 0.1 M phosphate buffer, pH 7.4 for 15 min at 37° C. […] To measure photobleaching, the tunable white light laser (WLL) was used to excite dyes at their λabs in constant power mode over 30 cycles; n=3 where n indicates the number of separate cellular experiments where the intensity of the entire field of view was measured at the indicated time points. […]

T1 sequence (P0A3G2 other isoform, or with tags, fused parts or gaps with the stated changes): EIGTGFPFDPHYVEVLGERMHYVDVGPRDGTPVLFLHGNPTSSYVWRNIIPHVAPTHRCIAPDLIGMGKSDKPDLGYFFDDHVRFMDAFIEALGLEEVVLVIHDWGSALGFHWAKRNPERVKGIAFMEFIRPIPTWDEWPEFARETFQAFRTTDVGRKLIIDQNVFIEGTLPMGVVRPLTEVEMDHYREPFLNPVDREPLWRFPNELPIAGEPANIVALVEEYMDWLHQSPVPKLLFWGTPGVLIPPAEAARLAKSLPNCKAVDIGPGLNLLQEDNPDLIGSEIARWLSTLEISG

Turning to `CCc1cc2c(c3c1=[N+](C)CCC3)C(C)(C)c1cc3c(cc1C=2c1c(F)c(C(=O)NCCOCCOCCCCCCCl)c(F)c(F)c1C(=O)[O-])C(C)CC(C)(C)N3CC` (stereo not drawn) [59HTL, JF657-HaloTag® ligand], in series [1], the “SPT brightness (photons/s) compared with 89HTL” value is “significant improvement in brightness” and the “SPT localizations over time” value is “consistent localizations over time”. In addition, in series [2], the “nuclear labeling of histone H2B-HaloTag® in live cells” value is reported as “excellent nuclear staining with little cellular background after washing”.
Take `C[Si]1(C)c2cc(O)c(F)cc2C2(OC(=O)c3c(F)c(F)c(F)c(F)c32)c2cc(F)c(O)cc21` [compound 80]: in series [3], the ε was 67,900 M^−1cm^−1, the λabs is 617 nm and the λem is 635 nm. Besides, the Φf in series [4] is 0.32. Further, the ηH in series [5] is 1.50.
As to `CC1(C)c2cc(O)ccc2C2(OC(=O)c3ccccc32)c2ccc(O)cc21` [compound 74, carbofluorescein], in series [3], the ε is on record as 108,000 M^−1cm^−1, the λabs was 544 nm and the λem is on record as 567 nm. Moreover, in series [4], the Φf is 0.62. Further, the ηH in series [5] is on record as 1.65.
Consider `CCc1cc2c(c3c1=[N+](C)CCC3)[Si](C)(C)c1c(cc3c4c1CCCN4CCC3)C=2c1c(F)c(C(=O)NCCOCCOCCCCCCCl)c(F)c(F)c1C(=O)[O-]` [31HTL, JF698-HaloTag® ligand], for which, in series [6] (excited at λabs), the “nuclear intensity compared to the other ligands” value is greater than 3 fold. Besides, the “brightness and photostability compared with 107HTL and 106HTL” value in series [7] was “brighter and more photostable”.
With `CC1=CC(C)(C)N(C)c2cc3c(cc21)C(c1cc(C(=O)NCCOCCOCCCCCCCl)ccc1C(=O)[O-])=c1cc2c(cc1[Si]3(C)C)=[N+](C)C(C)(C)C=C2C` [104HTL, 4^−((2-(2^−((6^−Chlorohexyl)oxy)ethoxy)ethyl)carbamoyl)-2^−(1,2,2,4,8,10,10,11,13,13^−decamethyl-2,10,11,13^−tetra-hydrosilino[3,2^−g:5,6^−g′]diquinolin-6^−ylium-6(1H)-yl)benzoate], the cellular intensity result in series [6] is “relatively low intensity”.
The same measure, in the same setting: as for `CC1=CC(C)(C)Nc2cc3c(cc21)C(c1c(F)c(C(=O)NCCOCCOCCCCCCCl)c(F)c(F)c1C(=O)O)=c1cc2c(cc1[Si]3(C)C)=NC(C)(C)C=C2C` [36HTL, 4^−((2^−(2^−((6^−Chlorohexyl)oxy)ethoxy)ethyl)carbamoyl)-2,3,5^−trifluoro-6-(2,2,4,8,10,10,13,13^−octamethyl-2,10,11,13^−tetrahydrosilino [3,2^−g:5,6^−g′]diquinolin-6^−ylium-6(1H)-yl)benzoate], the entry is “relatively low intensity”.
`C[Si]1(C)c2cc(O)c(F)cc2C2(OC(=O)c3ccccc32)c2cc(F)c(O)cc21` [compound 79]: in series [3], the ε was 60,900 M^−1cm^−1, the λabs is given as 596 nm and the λem was 618 nm. Moreover, the Φf in series [4] is on record as 0.42. The ηH in series [5] is 1.30.
As for “ATTO 647N-HaloTag® ligand [105HTL, reference compound]”, in series [2], the “nuclear labeling of histone H2B-HaloTag® in live cells” value is “does not show appreciable labeling in the nucleus”.
As for `C[Si]1(C)c2cc(O)ccc2C2(OC(=O)c3ccccc32)c2ccc(O)cc21` [compound 75], in series [3], the ε is given as 93,000 M^−1cm^−1, the λabs is 579 nm and the λem is recorded as 599 nm. Besides, the Φf in series [4] is reported as 0.53. Also, in series [5], the ηH is 1.69.
For the compound `CC1(C)c2cc(O)c(F)cc2C2(OC(=O)c3ccccc32)c2cc(F)c(O)cc21` [compound 78, Virginia Orange], in series [3], the ε was 90,900 M^−1cm^−1, the λabs is given as 555 nm and the λem is recorded as 581 nm. In series [4], the Φf is reported as 0.40. Further, the ηH in series [5] is reported as 1.46.

The values are drawn from patent US20250115628A1, “FLUORINATED FLUOROPHORES” (HOWARD HUGHES MEDICAL INSTITUTE, priority 2023, published 2025).
